Results as given in patent publication US20100069498A1 (ESSENTYS AB, priority 2003, published 2010).
Several values for one entry are separate records, joined by “and”; a condition that tells them apart may be missing. Identical values can stand only once.

Assays:
[1] = Source text: Female piglets (n=9) were purchased from the Texas Department of Criminal Justice, Huntsville, Tex.
Pigs (14 d of age) arrived at the Children's Nutrition Research Center and for a 7-day adjustment period were fed a liquid milk replacer diet (Litter Life, Merrick, Middleton, Wis.) at a rate of 50 g/(kg·d).
Briefly, under isoflurane anesthesia and aseptic conditions, the piglets were implanted with a polyethylene catheter (o.d., 1.27 mm, Becton Dickinson, Sparks, Md.) in the common portal vein, and silastic catheters (o.d., 1.78 mm) in an external jugular vein and a carotid artery.
An ultrasonic flow probe (8 to 10 mm i.d., Transonic, Ithaca, N.Y.) was placed around the portal vein.
A silicone catheter (o.d., 2.17 mm, Baxter Healthcare, McGaw Park, Ill.) was implanted into the lumen of the duodenum. The catheters were filled with sterile saline containing heparin (2.5×10^4 U/L), and exteriorized on either the left flank (portal and duodenal catheters, flow probe leads) or between the scapulae (jugular and carotid catheters).
For plasma amino acid analysis, a 0.2 mL aliquot of plasma was mixed with an equal volume of an aqueous solution of methionine sulfone (4 mmol/L) and centrifuged at 10,000×g for 120 min through a 10-kDa cutoff filter.
A 50 μL aliquot of the filtrate was dried and the amino acids were analyzed by reverse-phase HPLC of their phenylisothiocyanate derivatives (Pico Tag, Waters, Woburn, Mass.).
Plasma ammonia was determined using a spectrophotometric assay kit (171-C, Sigma-Aldrich, St. Louis, Mo.).
Plasma glucose was determined using a spectrophotometric assay kit (315-100; Sigma-Aldrich, St. Louis, Mo.).
Net portal balance of metabolites [μmol/(kg·h)] was calculated as follows:
(Conc.PORT−Conc.ART)×PBF (1)
when Conc. is the concentration in the blood (μmol/L), PORT and ART refer to portal and arterial blood and PBF is portal blood flow [L/(kg·h)].
Piglets were deprived of food for 15 h before initiation of the experiment.
On the day of the experiment, at time −1 h, a primed (7.75 mL/kg; 25% wt/wt aqueous solution; oral), continuous duodenal infusion of milk replacer [Litter Life, Merrick, Middleton, Wis.; 7.75 mL/(kg·h)] prepared as a 25% (wt/wt) aqueous solution which provided ˜920 kJ and 12.5 g protein/(kg·d).

[2] = Mean luminal disappearance of a duodenal AKG bolus; format: in vivo, pigs; settings: duodenal bolus 1040 μmol/kg
Description: After 1 h, pigs were sacrificed.
The small intestine was carefully clamped at the proximal duodenum and distal ileum, removed and flushed with 2×50 mL of saline to wash the intestine.

Remark: listed apart in the source
[3] = AKG infusion 930 μmol/(kg·h), P<0.01
[4] = AKG treatment, P<0.05, data not shown
[5] = piglets, duodenal infusion 930 μmol/(kg·h) AKG (3.75% of diet dry matter), ± SEM
[6] = pigs, duodenal infusion 930 μmol/(kg·h) AKG, n = 5
[7] = pigs, duodenal infusion 930 μmol/(kg·h) AKG, n = 5, LSMean ± SEM

O=C(O)CCC(=O)C(=O)O [AKG, alpha-ketoglutaric acid]
Effect on net portal appearance of glutamate ([1]; AKG infusion): not affected
Effect on net portal appearance of glutamine ([1]; AKG infusion): not affected
Effect on net portal balance of AKG vs control ([1]; AKG infusion 930 μmol/(kg·h)): increased
Effect on arterial AKG concentration vs control [1, 3]: increased
Effect on portal AKG concentration vs control [1, 3]: increased
Increase in proline net portal balance ([1]; AKG treated pigs vs control): 138.1 µmol/kg/h
Effect on ammonia net portal balance vs control ([1]; AKG treatment, duodenal infusion): not affected
Effect on net portal balance of glucose vs control ([1]; AKG treatment, duodenal infusion, P<0.05): decreased
Effect on portal mass balance of leucine vs control ([1]; AKG treatment, P<0.05): increased
Effect on portal mass balance of lysine vs control ([1]; AKG treatment, P<0.05): increased
Effect on portal mass balance of proline vs control ([1]; AKG treatment, P<0.05): increased
Effect on arterial concentration of proline vs control [1, 4]: increased
Effect on portal concentration of proline vs control [1, 4]: increased
Effect on portal mass balance of isoleucine vs control ([1]; AKG treatment, P<0.10): tended (P<0.10) to increase
Effect on portal leucine concentration vs control ([1]; AKG treatment, data not shown): tended (P<0.01) to be increased
AKG unaccounted for in the portal balance ([1]; duodenal infusion 930 μmol/(kg·h) AKG): over 800 μmol/(kg·h)
AKG net portal balance, % of infused ([1]; piglets, duodenal infusion 930 μmol/(kg·h) AKG): 10.23 % of infused and 10 % of infused and 10.23 ± 0.57 % of infused
AKG net portal balance [1, 5]: 95 µmol/kg/h and 95.2 ± 12 µmol/kg/h
Ammonia net portal balance [1, 5]: 561.1 ± 53 µmol/kg/h
Arterial AKG [1, 5]: 27.4 ± 3.6 µmol/L
Glucose net portal balance [1, 5]: 203.9 ± 69 mg/(kg · h)
Portal AKG [1, 5]: 64.6 ± 5.9 µmol/L
Net portal balance of Alanine, % of Intake [1, 6]: 189.0 % of Intake
Net portal balance of Arginine, % of Intake [1, 6]: 98.3 % of Intake
Net portal balance of Aspartate, % of Intake [1, 6]: 9.6 % of Intake
Net portal balance of Glutamate, % of Intake [1, 6]: 18.6 % of Intake
Net portal balance of Glycine, % of Intake [1, 6]: 116.0 % of Intake
Net portal balance of Histidine, % of Intake [1, 6]: 71.4 % of Intake
Net portal balance of Isoleucine, % of Intake [1, 6]: 140.0 % of Intake
Net portal balance of Leucine, % of Intake [1, 6]: 113.4 % of Intake
Net portal balance of Lysine, % of Intake [1, 6]: 98.8 % of Intake
Net portal balance of Phenylalanine, % of Intake [1, 6]: 98.7 % of Intake
Net portal balance of Proline, % of Intake [1, 6]: 114.5 % of Intake
Net portal balance of Serine, % of Intake [1, 6]: 108.3 % of Intake
Net portal balance of Threonine, % of Intake [1, 6]: 75.7 % of Intake
Net portal balance of Tyrosine, % of Intake [1, 6]: 135.9 % of Intake
Net portal balance of Valine, % of Intake [1, 6]: 108.9 % of Intake
Net portal balance of Alanine [1, 7]: 557.8 ± 48 µmol/kg/h
Net portal balance of Arginine [1, 7]: 109.0 ± 19 µmol/kg/h
Net portal balance of Asparagine [1, 7]: 185.6 ± 18 µmol/kg/h
Net portal balance of Aspartate [1, 7]: 29.7 ± 6.0 µmol/kg/h
Net portal balance of Glutamate [1, 7]: 80.1 ± 17 µmol/kg/h
Net portal balance of Glutamine [1, 7]: 25.5 ± 45 µmol/kg/h
Net portal balance of Glycine [1, 7]: 177.2 ± 20 µmol/kg/h
Net portal balance of Histidine [1, 7]: 45.9 ± 3.8 µmol/kg/h
Net portal balance of Phenylalanine [1, 7]: 95.2 ± 11 µmol/kg/h
Net portal balance of Serine [1, 7]: 244.7 ± 64 µmol/kg/h
Net portal balance of Threonine [1, 7]: 210.9 ± 18 µmol/kg/h
Net portal balance of Tryptophan [1, 7]: 47.2 ± 4.3 µmol/kg/h
Net portal balance of Tyrosine [1, 7]: 115.8 ± 17 µmol/kg/h
Net portal balance of Valine [1, 7]: 279.3 ± 32 µmol/kg/h
Share of the AKG bolus disappeared from the lumen of the duodenum ([2]; 1 h): approximately 64%
Luminal disappearance as share of the 1040 μmol/kg of infused AKG ([2]; pigs, one hour): 63.8
Effect on production of CO2 in the whole body (AKG infusion): did not increase
Effect on NOLD (non-oxidative leucine disposal) vs control (AKG treatment, FIG. 1): not affected
Effect on Ra (leucine appearance rate) vs control (AKG treatment, FIG. 1): not affected
Effect on whole-body leucine oxidation vs control (AKG treatment, FIG. 1): not affected
